The source of these data is ChEMBL document CHEMBL4184180, “Antitussive and expectorant activities of licorice and its major compounds” (2018).

The source made the active and inactive calls. The calls are words filed in the database; no cut-off is given here.

Test [1] concerns Mus musculus. The experiment in a line: Antitussive activity in ammonia liquor-induced cough ICR mouse model assessed as reduction in cough frequency at 50 mg/kg, po treated with ammonia 1 hr before and 2.5 hrs after test compound dosing measured for 3 mins relative to control. Format: functional.
Test [2] concerns Mus musculus. Kind of test: Antitussive activity in ammonia liquor-induced cough ICR mouse model assessed as reduction in cough frequency at 50 mg/kg, po treated with ammonia 1 hr before and 5 hrs after test compound dosing measured for 3 mins relative to control. Format: functional.
For test [3], the system named is Mus musculus. The experiment in a line: Antitussive activity in ammonia liquor-induced cough ICR mouse model assessed as reduction in cough frequency at 50 mg/kg, po treated with ammonia 1 hr before and 1 to 5 hrs after test compound dosing measured for 3 mins relative to control. The format is functional. Further details: scale not given: the % may be the effect or the level left.

The test system of test [4] is Mus musculus. Kind of test: Antitussive activity in ammonia liquor-induced cough ICR mouse model assessed as reduction in cough frequency at 50 mg/kg, po treated with ammonia 1 hr before and 1 hr after test compound dosing measured for 3 mins in presence of 5-HT receptor antagonist methysergide relative to control. Format: functional.
Test [5] has as its system Mus musculus. Kind of test: Antitussive activity in ammonia liquor-induced cough ICR mouse model assessed as reduction in cough frequency at 50 mg/kg, po treated with ammonia 1 hr before and 1 hr after test compound dosing measured for 3 mins in presence of ATP-sensitive K+ channel blocker glibenclamide relative to control. Format: functional.
Test [6] deals with Mus musculus. Kind of test: Antitussive activity in ammonia liquor-induced cough ICR mouse model assessed as reduction in cough frequency at 50 mg/kg, po treated with ammonia 1 hr before and 1 to 5 hrs after test compound dosing measured for 3 mins in presence of opioid receptor antagonist naloxone relative to control. The format is functional, organism-based.
For test [7], the system named is Mus musculus. The experiment in a line: Expectorant activity in ICR mouse assessed as increase in phenol red secretion in trachea at 50 mg/kg, po for 3 days followed by phenol red treatment at 30 mins post last dose measured after 30 mins by UV-Vis spectrophotometric assay relative to control. The format is functional.
Test [8] relates to Mus musculus. Kind of test: Expectorant activity in ICR mouse assessed as phenol red secretion in trachea at 20 to 50 mg/kg, po for 3 days followed by phenol red treatment at 30 mins post last dose measured after 30 mins by UV-Vis spectrophotometric assay relative to control. The format is functional.
For test [9], the system named is Mus musculus. The experiment in a line: Antitussive activity in ammonia liquor-induced cough ICR mouse model assessed as reduction in cough frequency at 50 mg/kg, po treated with ammonia 1 hr before and 1 hr after test compound dosing measured for 3 mins relative to control. The format is functional.
Test [10] deals with Mus musculus. Kind of test: Antitussive activity in ammonia liquor-induced cough ICR mouse model assessed as reduction in cough frequency at 20 mg/kg, po treated with ammonia 1 hr before and 1 hr after test compound dosing measured for 3 mins. The format is functional, organism-based.
Test [11] deals with Mus musculus. The experiment in a line: Antitussive activity in ammonia liquor-induced cough ICR mouse model assessed as reduction in cough frequency at 20 mg/kg, po treated with ammonia 1 hr before and 2.5 hrs after test compound dosing measured for 3 mins. The format is functional, organism-based.
Test [12] deals with Mus musculus. Kind of test: Antitussive activity in ammonia liquor-induced cough ICR mouse model assessed as reduction in cough frequency at 20 mg/kg, po treated with ammonia 1 hr before and 5 hrs after test compound dosing measured for 3 mins. The format is functional, organism-based.
Test [13] deals with Mus musculus. Kind of test: Antitussive activity in ammonia liquor-induced cough ICR mouse model assessed as increase in latent period at 50 mg/kg, po treated with ammonia 1 hr before and 1 hr after test compound dosing measured at 1 hr post dose. Format: functional, organism-based.
Test [14] deals with Mus musculus. Kind of test: Antitussive activity in ammonia liquor-induced cough ICR mouse model assessed as increase in latent period at 50 mg/kg, po treated with ammonia 1 hr before and 1 to 5 hrs after test compound dosing measured for 3 mins relative to control. Format: functional.
The test system of test [15] is Mus musculus. The experiment in a line: Antitussive activity in ammonia liquor-induced cough ICR mouse model assessed as reduction in cough frequency at 20 mg/kg, po treated with ammonia 1 hr before and 1 to 5 hrs after test compound dosing measured for 3 mins relative to control. Format: functional, organism-based.
For test [16], the system named is Mus musculus. The experiment in a line: Antitussive activity in ammonia liquor-induced cough ICR mouse model assessed as increase in latent period at 20 mg/kg, po treated with ammonia 1 hr before and 1 to 5 hrs after test compound dosing measured at 1 hr post dose. Format: functional, organism-based.

`O=C1C[C@@H](c2ccc(O[C@@H]3O[C@H](CO)[C@@H](O)[C@H](O)[C@H]3O)cc2)Oc2cc(O)ccc21` [LIQUIRITIN]: the result in the test on Mus musculus [1], in the test with Mus musculus [2] and in the test on Mus musculus [6] was Active. Further, the Activity in the test on Mus musculus [3] is 30 - 78%; in the test with Mus musculus [8], 249.8%. Moreover, the outcome with Mus musculus [4] and in the test with Mus musculus [5] was inactive. The “fold change (FC)” value with Mus musculus [7] was determined as 2.5.

With `CC(C)=CCc1cc2c(=O)cc(-c3ccc(O)cc3)oc2cc1O`, the result with Mus musculus [9], in the test with Mus musculus [1], in the test with Mus musculus [2], in the test on Mus musculus [10], in the test with Mus musculus [11] and with Mus musculus [12] was inactive.

As for `COc1ccccc1OCC(O)CO` (stereo not given) [GUAIFENESIN], the “fold change (FC)” value in the test on Mus musculus [7] is recorded as 3. Besides, the Activity with Mus musculus [8] is 299.5%.

Take `O=C(/C=C/c1ccc(O[C@@H]2O[C@H](CO)[C@@H](O)[C@H](O)[C@H]2O)cc1)c1ccc(O)cc1O`: the outcome with Mus musculus [9], in the test on Mus musculus [1], in the test on Mus musculus [2], in the test on Mus musculus [10], in the test with Mus musculus [11] and with Mus musculus [12] was inactive.

For the molecule `O=C1C[C@@H](c2ccc(O)cc2)Oc2cc(O)ccc21` [LIQUIRTIGENIN], the result with Mus musculus [2] and with Mus musculus [6] was Active. The Activity in the test with Mus musculus [3] is given as 30 - 78%; in the test with Mus musculus [8] it was 156.7%. The result in the test on Mus musculus [4] and in the test on Mus musculus [5] was inactive. The “fold change (FC)” value in the test with Mus musculus [7] is 1.57.

`COc1c(CC=C(C)C)c(O)cc2oc(=O)c(-c3ccc(O)cc3O)cc12`: the outcome in the test with Mus musculus [9], in the test with Mus musculus [1], with Mus musculus [2], with Mus musculus [10], with Mus musculus [11] and in the test with Mus musculus [12] was inactive.

Consider `CC1(C)[C@@H](O)CC[C@]2(C)[C@H]3C(=O)C=C4[C@@H]5C[C@@](C)(C(=O)O)CC[C@]5(C)CC[C@@]4(C)[C@]3(C)CC[C@@H]12` [ENOXOLONE], for which the Activity with Mus musculus [3] is given as 27 - 40%. The result in the test on Mus musculus [7] was inactive.

`CCN(CC)CCOCCOC(=O)C1(c2ccccc2)CCCC1.O=C(O)CC(O)(CC(=O)O)C(=O)O` [CARBETAPENTANE CITRATE]: the Activity in the test on Mus musculus [9] is 58%; in the test with Mus musculus [1], 53%; with Mus musculus [2], 50%. In addition, in the test with Mus musculus [13], the result was Active.

With `COc1cc(O)ccc1/C=C/C(=O)c1ccc(O)cc1`, the result in the test on Mus musculus [9], in the test on Mus musculus [1], in the test on Mus musculus [2], with Mus musculus [10], in the test on Mus musculus [11] and in the test with Mus musculus [12] was inactive.

Regarding `O=C(/C=C/c1ccc(O)cc1)c1ccc(O)cc1O`, the result with Mus musculus [9], in the test on Mus musculus [10] and in the test on Mus musculus [7] was inactive. Further, the outcome in the test with Mus musculus [1], in the test on Mus musculus [2], in the test with Mus musculus [11] and with Mus musculus [12] was Active.

In the case of `O=C1C[C@@H](c2ccc(O[C@@H]3O[C@H](CO)[C@@H](O)[C@H](O)[C@H]3O[C@@H]3OC[C@](O)(CO)[C@H]3O)cc2)Oc2cc(O)ccc21`, the Activity is given as 79.1% in the test on Mus musculus [9]; 30 - 78% in the test on Mus musculus [3]; 30% in the test with Mus musculus [4]; 28.2% in the test on Mus musculus [5]; 196.6% in the test on Mus musculus [8]. For the same molecule, the “fold change (FC)” value was 1.3 - 1.9 in the test on Mus musculus [14] and 1.97 with Mus musculus [7]. Also, the outcome with Mus musculus [15] and in the test on Mus musculus [6] was Active. Further, the result in the test with Mus musculus [16] was inactive.

For the molecule `CC1(C)[C@@H](O[C@H]2O[C@H](C(=O)O)[C@@H](O)[C@H](O)[C@H]2O[C@@H]2O[C@H](C(=O)O)[C@@H](O)[C@H](O)[C@H]2O)CC[C@]2(C)[C@H]3C(=O)C=C4[C@@H]5C[C@@](C)(C(=O)O)CC[C@]5(C)CC[C@@]4(C)[C@]3(C)CC[C@@H]12`, the outcome in the test with Mus musculus [9], in the test on Mus musculus [1], in the test on Mus musculus [2], in the test with Mus musculus [10], with Mus musculus [11] and in the test on Mus musculus [12] was inactive. The outcome in the test with Mus musculus [7] was inactive.

As to `O=C(/C=C/c1ccc(O[C@H]2O[C@@H](CO)[C@H](O)[C@@H](O)[C@@H]2O[C@@H]2OC[C@](O)(CO)[C@H]2O)cc1)c1ccc(O)cc1O`, the result in the test with Mus musculus [9] and with Mus musculus [10] was Active. The result in the test with Mus musculus [1], with Mus musculus [2], in the test on Mus musculus [11] and with Mus musculus [12] was inactive.

Turning to `CC1(C)C=Cc2c(ccc3c2OC[C@@H](c2ccc(O)cc2O)C3)O1`, the outcome in the test with Mus musculus [1] was Active.

With `CC(C)=CCc1cc(-c2coc3cc(O)c(CC=C(C)C)c(O)c3c2=O)cc(O)c1O`, the outcome in the test on Mus musculus [9], in the test with Mus musculus [1], with Mus musculus [2], in the test on Mus musculus [10], in the test on Mus musculus [11] and in the test on Mus musculus [12] was inactive.

`C=CC(C)(C)c1cc(/C=C/C(=O)c2ccc(O)cc2)c(OC)cc1O`: the outcome in the test on Mus musculus [9], in the test on Mus musculus [1], in the test with Mus musculus [2], in the test with Mus musculus [10], in the test with Mus musculus [11] and in the test on Mus musculus [12] was inactive.
